According to patent USH1923H, “Herbicidal (oxaalkyl) phenyl-substituted heterocycles” (FMC Corporation, priority 1998, dated 2000):

How the values were obtained:
[1] = test system: corn; test: preemergence herbicidal activity on corn; format: in vivo, Zea mays var. Pioneer 3732; details: Zea mays, pre-emergence, 0.3 Kg/Ha, after 12-17 days, read-out: PREEMERGENCE HERBICIDAL ACTIVITY (% CONTROL) CRN
Procedure: (§1) The (oxaalkyl)phenyl-substituted heterocycles of this invention were tested for pre- and postemergence herbicidal activity using a variety of crops and weeds. The test plants included soybean (Glycine max var. Winchester),field corn (Zea mays var. Pioneer 3732), wheat (Triticum aestivum var. Lew), morningglory (Ipomea lacunosa or Ipomea hederacea), […] (Abutilon theophrasti), green foxtail (Setaria viridis), Johnsongrass (Sorghum halepense), blackgrass (Aloepecurus myosuroides), common chickweed (Stellaria media), and common cocklebur (Xanthium strumarium L.).
(§2) For preemergence testing, two disposable fiber flats (8 cm×15 cm×25 cm) for each rate of application of each candidate herbicide were filled to an approximate depth of 6.5 cm with steam-sterilized sandy loam soil. The soil was leveled and impressed with a template to provide five evenly spaced furrows 13 cm long and 0.5 cm deep in each flat. Seeds of soybean, wheat, corn, green foxtail, and johnsongrass were planted in the furrows of the first flat, and seeds of velvetleaf, morningglory, common chickweed, cocklebur, and blackgrass were planted in the furrows of the second flat. The five-row template was employed to firmly press the seeds into place. A topping soil of equal portions of sand and sandy loam soil was placed uniformly on top of each flat to a depth of approximately 0.5 cm. Flats for postemergence testing were prepared in the same manner except that they were planted 9-14 days prior to the preemergence flats and were placed in a greenhouse and watered, thus allowing the seeds to germinate and the foliage to develop.
(§3) In both pre- and postemergence tests, a stock solution of the candidate herbicide was prepared by dissolving 0.27 g of the compound in 20 mL of water/acetone (50/50) containing 0.5% v/v sorbitan monolaurate. For an application rate of 3000 g/ha of herbicide a 10 mL portion of the stock solution was diluted with water/acetone (50/50) to 45 mL.
(§4) The preemergence flats were initially subjected to a light water spray. The four flats were placed two by two along a conveyor belt (i.e., the two preemergence followed by the two postemergence flats). The conveyor belt fed under a spray nozzle mounted about ten inches above the postemergent foliage. The preemergent flats were elevated on the belt so that the soil surface was at the same level below the spray nozzle as the foliage canopy of the postemergent plants. The spray of herbicidal solution was commenced and once stabilized, the flats were passed under the spray at a speed to receive a coverage equivalent of 1000 L/ha. At this coverage the application rates are those shown in the above table for the individual herbicidal solutions. The preemergence flats were watered immediately thereafter, placed in the greenhouse and watered regularly at the soil surface. The postemergence flats were immediately placed in the green-house and not watered until 24 hours after treatment with the test solution. Thereafter they were regularly watered at ground level. After 12-17 days the plants were examined and the phytotoxicity data were recorded.
(§5) Phytotoxicity data were taken as percent control. Percent control was by a method similar to the 0 to 1 00 rating system disclosed in "Research Methods in Weed Science," 2nd ed., B. Truelove, Ed.; Southern Weed Science Society; Auburn University, Auburn, Ala., 1977.

[2] = test system: soybean; test: postemergence herbicidal activity on soybean; format: in vivo, Glycine max var. Winchester; details: Glycine max, post-emergence, 0.3 Kg/Ha, after 12-17 days, read-out: POSTEMERGENCE HERBICIDAL ACTIVITY (% CONTROL) SOY
Procedure: as §1, §2, §3, §4, §5

[3] = test system: chickweed; test: postemergence herbicidal activity on chickweed; format: in vivo; details: Stellaria media, post-emergence, 0.3 Kg/Ha, after 12-17 days, read-out: POSTEMERGENCE HERBICIDAL ACTIVITY (% CONTROL) STEME
Procedure: as §1, §2, §3, §4, §5

[4] = test system: wheat; test: postemergence herbicidal activity on wheat; format: in vivo, Triticum aestivum var. Lew; details: Triticum aestivum, post-emergence, 0.3 Kg/Ha, after 12-17 days, read-out: POSTEMERGENCE HERBICIDAL ACTIVITY (% CONTROL) WHT
Procedure: as §1, §2, §3, §4, §5

[5] = test system: soybean; test: preemergence herbicidal activity on soybean; format: in vivo, Glycine max var. Winchester; details: Glycine max, pre-emergence, 0.3 Kg/Ha, after 12-17 days, read-out: PREEMERGENCE HERBICIDAL ACTIVITY (% CONTROL) SOY
Procedure: as §1, §2, §3, §4, §5

[6] = test system: wheat; test: preemergence herbicidal activity on wheat; format: in vivo, Triticum aestivum var. Lew; details: Triticum aestivum, pre-emergence, 0.3 Kg/Ha, after 12-17 days, read-out: PREEMERGENCE HERBICIDAL ACTIVITY (% CONTROL) WHT
Procedure: as §1, §2, §3, §4, §5

[7] = test system: green foxtail; test: postemergence herbicidal activity on green foxtail; format: in vivo; details: Setaria viridis, post-emergence, 0.3 Kg/Ha, after 12-17 days, read-out: POSTEMERGENCE HERBICIDAL ACTIVITY (% CONTROL) SETVI
Procedure: as §1, §2, §3, §4, §5

[8] = test system: blackgrass; test: preemergence herbicidal activity on blackgrass; format: in vivo, Aloepecurus myosuroides; details: Alopecurus myosuroides, pre-emergence, 0.3 Kg/Ha, after 12-17 days, read-out: PREEMERGENCE HERBICIDAL ACTIVITY (% CONTROL) ALOMY
Procedure: as §1, §2, §3, §4, §5

[9] = test system: cocklebur; test: preemergence herbicidal activity on cocklebur; format: in vivo, Xanthium strumarium L.; details: Xanthium strumarium, pre-emergence, 0.3 Kg/Ha, after 12-17 days, read-out: PREEMERGENCE HERBICIDAL ACTIVITY (% CONTROL) XANPE
Procedure: as §1, §2, §3, §4, §5

[10] = test system: morningglory; test: postemergence herbicidal activity on morningglory; format: in vivo, Ipomea lacunosa or Ipomea hederacea; details: Ipomoea, post-emergence, 0.3 Kg/Ha, after 12-17 days, read-out: POSTEMERGENCE HERBICIDAL ACTIVITY (% CONTROL) IPOSS
Procedure: as §1, §2, §3, §4, §5

[11] = test system: corn; test: postemergence herbicidal activity on corn; format: in vivo, Zea mays var. Pioneer 3732; details: Zea mays, post-emergence, 0.3 Kg/Ha, after 12-17 days, read-out: POSTEMERGENCE HERBICIDAL ACTIVITY (% CONTROL) CRN
Procedure: as §1, §2, §3, §4, §5

[12] = test system: chickweed; test: preemergence herbicidal activity on chickweed; format: in vivo; details: Stellaria media, pre-emergence, 0.3 Kg/Ha, after 12-17 days, read-out: PREEMERGENCE HERBICIDAL ACTIVITY (% CONTROL) STEME
Procedure: as §1, §2, §3, §4, §5

[13] = test system: johnsongrass; test: preemergence herbicidal activity on johnsongrass; format: in vivo; details: Sorghum halepense, pre-emergence, 0.3 Kg/Ha, after 12-17 days, read-out: PREEMERGENCE HERBICIDAL ACTIVITY (% CONTROL) SORHA
Procedure: as §1, §2, §3, §4, §5

[14] = test system: johnsongrass; test: postemergence herbicidal activity on johnsongrass; format: in vivo; details: Sorghum halepense, post-emergence, 0.3 Kg/Ha, after 12-17 days, read-out: POSTEMERGENCE HERBICIDAL ACTIVITY (% CONTROL) SORHA
Procedure: as §1, §2, §3, §4, §5

[15] = test system: velvetleaf; test: postemergence herbicidal activity on velvetleaf; format: in vivo; details: Abutilon theophrasti, post-emergence, 0.3 Kg/Ha, after 12-17 days, read-out: POSTEMERGENCE HERBICIDAL ACTIVITY (% CONTROL) ABUTH
Procedure: as §1, §2, §3, §4, §5

[16] = test system: green foxtail; test: preemergence herbicidal activity on green foxtail; format: in vivo; details: Setaria viridis, pre-emergence, 0.3 Kg/Ha, after 12-17 days, read-out: PREEMERGENCE HERBICIDAL ACTIVITY (% CONTROL) SETVI
Procedure: as §1, §2, §3, §4, §5

[17] = test system: blackgrass; test: postemergence herbicidal activity on blackgrass; format: in vivo, Aloepecurus myosuroides; details: Alopecurus myosuroides, post-emergence, 0.3 Kg/Ha, after 12-17 days, read-out: POSTEMERGENCE HERBICIDAL ACTIVITY (% CONTROL) ALOMY
Procedure: as §1, §2, §3, §4, §5

[18] = test system: velvetleaf; test: preemergence herbicidal activity on velvetleaf; format: in vivo; details: Abutilon theophrasti, pre-emergence, 0.3 Kg/Ha, after 12-17 days, read-out: PREEMERGENCE HERBICIDAL ACTIVITY (% CONTROL) ABUTH
Procedure: as §1, §2, §3, §4, §5

[19] = test system: morningglory; test: preemergence herbicidal activity on morningglory; format: in vivo, Ipomea lacunosa or Ipomea hederacea; details: Ipomoea, pre-emergence, 0.3 Kg/Ha, after 12-17 days, read-out: PREEMERGENCE HERBICIDAL ACTIVITY (% CONTROL) IPOSS
Procedure: as §1, §2, §3, §4, §5

[20] = test system: cocklebur; test: postemergence herbicidal activity on cocklebur; format: in vivo, Xanthium strumarium L.; details: Xanthium strumarium, post-emergence, 0.3 Kg/Ha, after 12-17 days, read-out: POSTEMERGENCE HERBICIDAL ACTIVITY (% CONTROL) XANPE
Procedure: as §1, §2, §3, §4, §5

Compound	activity at 300 g/ha [1] [%]	activity at 300 g/ha [2] [%]	activity at 300 g/ha [3] [%]	activity at 300 g/ha [4] [%]	activity at 300 g/ha [5] [%]	activity at 300 g/ha [6] [%]	activity at 300 g/ha [7] [%]	activity at 300 g/ha [8] [%]	activity at 300 g/ha [9] [%]	activity at 300 g/ha [10] [%]	activity at 300 g/ha [11] [%]	activity at 300 g/ha [12] [%]	activity at 300 g/ha [13] [%]	activity at 300 g/ha [14] [%]	activity at 300 g/ha [15] [%]	activity at 300 g/ha [16] [%]	activity at 300 g/ha [17] [%]	activity at 300 g/ha [18] [%]	activity at 300 g/ha [19] [%]	activity at 300 g/ha [20] [%]
Cn1c(C(F)(F)F)cc(=O)n(-c2cc(CC(Cl)C(C)(C)O)c(Cl)cc2F)c1=O (stereo not drawn) [Compound 1, 2-CHLORO-3-METHYL-1-[2-CHLORO-4-FLUORO-5-[1-METHYL-6-TRIFLUOROMETHYL-2,4(1H,3H)-PYRIMIDINDION-3-YL]PHENYL]BUTAN-3-OL]	95	100	100	90	100	80	100	80	95	100	100	100	95	100	100	100	80	100	100	100
Cn1nc(-c2cc(CC(Cl)C(C)(C)O)c(Cl)cc2F)c(Cl)c1OC(F)F (stereo not drawn) [Compound 3]	40	95	100	40	60	30	100		100	100	70	100	75	60	100	100		100	100	100
CC(=O)OC(C)(C)C(Cl)Cc1cc(-n2c(=O)cc(C(F)(F)F)n(C)c2=O)c(F)cc1Cl (stereo not drawn) [Compound 16, 2-CHLORO-3-METHYL-1-[2-CHLORO-4-FLUORO-5-[1-METHYL-6-TRIFLUOROMETHYL-2,4(1H,3H)-PYRIMIDINDION-3-YL]PHENYL]BUTAN-3-YL ACETATE]	90	95	100	60	100	70	100		100	90	90	100	100	100	100	100	100	100	100	100
